Assay results reported in patent US8563559B2 (Rigel Pharmaceuticals, Inc., priority 2006, dated 2013).

Each molecule was assayed against T1, Axl (Homo sapiens, UniProt P30530) (assay: Phospho-AKT in-cell Western assay (inhibition of Axl activity)). Conditions: Table 1, formula (Ia); Hela cells, Axl antibody cross-linking stimulation, phospho-Akt chemiluminescence normalized to relative cell number.
T1 construct: endogenous in cells; host or cells: HeLa
T1 sequence (P30530 26-894): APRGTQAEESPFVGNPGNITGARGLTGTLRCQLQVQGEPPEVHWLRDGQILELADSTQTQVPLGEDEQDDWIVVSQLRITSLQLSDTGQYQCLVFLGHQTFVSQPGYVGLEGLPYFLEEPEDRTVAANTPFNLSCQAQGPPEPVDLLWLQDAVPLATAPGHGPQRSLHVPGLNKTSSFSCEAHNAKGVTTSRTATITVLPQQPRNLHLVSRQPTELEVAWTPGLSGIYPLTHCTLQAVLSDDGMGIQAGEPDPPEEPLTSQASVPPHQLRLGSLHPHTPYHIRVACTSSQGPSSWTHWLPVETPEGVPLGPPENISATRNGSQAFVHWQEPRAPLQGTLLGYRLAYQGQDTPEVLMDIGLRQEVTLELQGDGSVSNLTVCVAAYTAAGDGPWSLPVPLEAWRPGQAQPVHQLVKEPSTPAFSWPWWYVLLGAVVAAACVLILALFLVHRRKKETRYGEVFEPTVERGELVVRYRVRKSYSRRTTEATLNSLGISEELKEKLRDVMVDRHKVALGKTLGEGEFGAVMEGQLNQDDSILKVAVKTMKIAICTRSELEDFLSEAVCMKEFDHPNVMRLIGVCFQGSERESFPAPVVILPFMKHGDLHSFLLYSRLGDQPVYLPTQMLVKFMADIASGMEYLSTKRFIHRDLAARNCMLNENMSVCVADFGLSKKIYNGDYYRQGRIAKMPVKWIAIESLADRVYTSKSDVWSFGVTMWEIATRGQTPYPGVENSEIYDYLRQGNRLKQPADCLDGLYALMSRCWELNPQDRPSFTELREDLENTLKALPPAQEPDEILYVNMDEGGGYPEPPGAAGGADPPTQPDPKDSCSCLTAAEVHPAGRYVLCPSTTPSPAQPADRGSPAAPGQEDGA
Type: cell-based
How it was run: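 HeLa cells were starved 24 h in 0.5% FCS with Axl/Fc 500 ng/mL, pre-treated with compound for 1 h at 37 °C, then stimulated 5 min by anti-Axl antibody cross-linking. Fixed cells were probed for phospho-AKT with an HRP-linked in-cell Western and read by chemiluminescence.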

| SMILES | IC50 [µM] |
| --- | --- |
| CNC(=O)[C@H]1C[C@H]2C[C@H](C2(C)C)[C@@]1(C)Nc1nc(Nc2ccc(N3CCN(C(C)=O)CC3)c(C(F)(F)F)c2)ncc1F [Compound 39, (1R,2R,3S,5R)-2-(5-fluoro-2-(3-trifluoromethyl-4-(4-acetylpiperazin-1-yl)phenylamino)pyrimidin-4-ylamino)-N,2,6,6-tetramethylbicyclo[3.1.1]heptane-3-carboxamide] | > 20 |
| CNC(=O)[C@H]1C[C@H]2C[C@H](C2(C)C)[C@@]1(C)Nc1nc(Nc2ccc(OCC(C)(C)N3CCCC3)cc2)ncc1Cl [Compound 8, (1R,2R,3S,5R)-2-(5-chloro-2-(4-(2-methyl-2-(pyrrolidin-1-yl)propoxy)phenylamino)pyrimidin-4-ylamino)-N,2,6,6-tetramethylbicyclo[3.1.1]heptane-3-carboxamide] | < 1 |
| CNC(=O)[C@H]1C[C@H]2C[C@H](C2(C)C)[C@@]1(C)Nc1nc(Nc2ccc(OCCN3CCCC3)cc2)ncc1Cl [Compound 1, (1R,2R,3S,5R)-2-(5-chloro-2-(4-(2-(pyrrolidin-1-yl)ethoxy)phenylamino)pyrimidin-4-ylamino)-N,2,6,6-tetramethylbicyclo[3.1.1]heptane-3-carboxamide] | < 1 |
| CNC(=O)[C@H]1C[C@H]2C[C@H](C2(C)C)[C@@]1(C)Nc1nc(Nc2ccc(N3CCN(C(C)=O)CC3)cc2)ncc1Cl [Compound 13, (1R,2R,3S,5R)-2-(2-(4-(4-acetylpiperazin-1-yl)phenylamino)-5-chloropyrimidin-4-ylamino)-N,2,6,6-tetramethylbicyclo[3.1.1]heptane-3-carboxamide] | 1 to 10 |
| CNC(=O)[C@H]1C[C@H]2C[C@H](C2(C)C)[C@@]1(C)Nc1nc(Nc2ccc(N3CCC(F)(F)CC3)c(Cl)c2)ncc1F [Compound 34, (1R,2R,3S,5R)-2-(5-fluoro-2-(3-chloro-4-(4,4-difluoropipendin-1-yl)phenylamino)pyrimidin-4-ylamino)-N,2,6,6-tetramethylbicyclo[3.1.1]heptane-3-carboxamide] | > 20 |

Same assay, conditions: Table 2, formula (Ib); Hela cells, Axl antibody cross-linking stimulation, phospho-Akt chemiluminescence normalized to relative cell number

| SMILES | IC50 [µM] |
| --- | --- |
| CNC(=O)[C@@H]1C[C@@H]2C[C@@H](C2(C)C)[C@]1(C)Nc1nc(Nc2ccc(N3CCOCC3)cc2)ncc1Cl [Compound 21, (1S,2S,3R,5S)-2-(5-chloro-2-(4-morpholinophenylamino)pyrimidin-4-ylamino)-N,2,6,6-tetramethylbicyclo[3.1.1]heptane-3-carboxamide] | 1 to 10 |

Same assay, conditions: Table 3, formula (Ic); Hela cells, Axl antibody cross-linking stimulation, phospho-Akt chemiluminescence normalized to relative cell number

| SMILES | IC50 [µM] |
| --- | --- |
| CN(C)CCN1CCOc2cc(Nc3ncc(Cl)c(N[C@@]4(C)[C@@H](C(=O)NCCO)C[C@H]5C[C@@H]4C5(C)C)n3)ccc21 [Compound 60, (1R,2R,3S,5R)-2-(5-chloro-2-((3,4-dihydro-4-(2-(dimethylamino)ethyl)-2H-benzo[b][1,4]oxazin-7-yl)amino)pyrimidin-4-ylamino)-N-(2-hydroxyethyl)-2,6,6-trimethylbicyclo[3.1.1]heptane-3-carboxamide] | < 1 |
| CNC(=O)[C@H]1C[C@H]2C[C@H](C2(C)C)[C@@]1(C)Nc1nc(Nc2ccc3c(c2)N(CCN(C)C)CCO3)ncc1F [Compound 51, (1R,2R,3S,5R)-2-(5-fluoro-2-((3,4-dihydro-4-(2-(dimethylamino)ethyl)-2H-benzo[b][1,4]oxazin-6-yl)amino)pyrimidin-4-ylamino)-N,2,6,6-tetramethylbicyclo[3.1.1]heptane-3-carboxamide] | 1 to 10 |
| CNC(=O)[C@H]1C[C@H]2C[C@H](C2(C)C)[C@@]1(C)Nc1nc(Nc2ccc3c(c2)OCCN3CCN(C)C)ncc1C [Compound 49, (1R,2R,3S,5R)-2-(5-methyl-2-((3,4-dihydro-4-(2-(dimethylamino)ethyl)-2H-benzo[b][1,4]oxazin-7-yl)amino)pyrimidin-4-ylamino)-N,2,6,6-tetramethylbicyclo[3.1.1]heptane-3-carboxamide] | 1 to 10 |
| CNC(=O)[C@H]1C[C@H]2C[C@H](C2(C)C)[C@@]1(C)Nc1nc(Nc2ccc3c(c2)OCC(=O)N3)ncc1Cl [Compound 28, (1R,2R,3S,5R)-2-(5-chloro-2-(3-oxo-3,4-dihydro-2H-benzo[b][1,4]oxazin-7-ylamino)pyrimidin-4-ylamino)-N,2,6,6-tetramethylbicyclo[3.1.1]heptane-3-carboxamide] | > 20 |
